# Patent publication US20240197664A1, “SIRTUIN OR KLOTHO ACTIVATOR OR EXPRESSION ENHANCER, NAD+ INCREASING AGENT, AND SENOLYTIC AGENT” (WAKUNAGA PHARMACEUTICAL CO., LTD., priority 2021, published 2024)
# How the values were obtained:
# SIRT1 protein = SIRT1 protein increasing action (in vivo), Western Blotting of hippocampus; design: species or system senescence-accelerated mice SAMP8; conditions: repeated oral administration for two weeks
# Text: (§1) Animals for evaluating the biological activity were bred as follows. Senescence-accelerated mice SAMP8 (male) for testing were purchased from Japan SLC, Inc. After purchase, the animals were acclimatized for one week and used as animals for the evaluation tests.
# (§2) After repeated oral administration of the sample prepared in the above (1) (a) to animals for the evaluation tests in the above (2) for two weeks, hippocampi of such animals were excised. After the hippocampi were crushed using an automatic tissue crusher, the cells were lysed with a RIPA cell lysis buffer manufactured by Millipore Corporation which was diluted 10-fold with purified water added with combined protease/phosphatase inhibitors manufactured by Thermo Fisher Scientific K.K., and then centrifuged (10,000 rpm, 10 min, 4° C.), and the supernatant was used as a cell extract. The cell extract was used for analysis by Western Blotting according to a conventional method. An anti-SIRT1 antibody (manufactured by Biolegend) and an anti-β-actin antibody (manufactured by Fujifilm Wako Pure Chemical Corporation) were used as antibodies.
# [1] = test system: kidney injury molecule (KIM-1); assay: Inhibitory action on kidney injuries (in vivo), KIM-1 Western Blotting; design: species or system senescence-accelerated mice SAMP8; conditions: repeated oral administration for two weeks
# Text: as §1
# (§3) After repeated oral administration of the sample prepared in the above (1) (a) to the animals for the evaluation tests in the above (2) for two weeks, kidneys of such animals were excised. After the kidneys were crushed using an automatic tissue crusher, the cells were lysed with an RIPA cell lysis buffer manufactured by Millipore Corporation which was diluted 10-fold with purified water added with a protease inhibitor and a phosphatase inhibitor manufactured by Roche and then centrifuged (10,000 rpm, 10 min, 4° C.), and the supernatant was used as a cell extract. The cell extract was used for analysis by Western Blotting according to a conventional method. A kidney injury molecule (KIM-1) antibody (manufactured by R&D System) and a lipocalin-2 (NGAL) antibody (manufactured by Proteintech Group, Inc.), KIM-1 and NGAL being markers of kidney injuries, and an anti-GAPDH antibody (manufactured by Fujifilm Wako Pure Chemical Corporation) were used as antibodies.
# p16 gene = assay: Suppression of senescent cell marker p16 gene expression in the kidney (in vivo), real-time PCR; design: species or system senescence-accelerated mice SAMP8; conditions: repeated oral administration for two weeks
# Text: as §1
# (§4) After repeated oral administration of the sample prepared in the above (1) (a) to the animals for the evaluation tests in the above (2) for two weeks, kidneys of such animals were excised. The kidneys were crushed using an automatic tissue crusher, and then RNA was extracted using a TRIzol solution manufactured by Thermo Fisher Scientific K.K.
# (§5) CDNA was synthesized using PRIMEScript RT reagent Kit with gEraser manufactured by Takara. The synthesized cDNA was subjected to real-time PCR using KAPA SYBR Fast qPCR kit manufactured by Nippon Genetics Co., Ltd. Results are shown in FIG. 6.
# SIRT1 gene = assay: Enhancement of SIRT1 gene expression in the kidney (in vivo), real-time PCR; design: species or system senescence-accelerated mice SAMP8; conditions: repeated oral administration for two weeks
# Text: as §1
# as §4, with “K.K. cDNA was synthesized using PRIMEScript RT reagent Kit with gEraser manufactured by Takara. The synthesized cDNA was subjected to real-time PCR using KAPA SYBR Fast qPCR kit manufactured by Nippon Genetics Co., Ltd. Results are shown in FIG. 5.” for “K.K.”
# p53 protein = assay: Suppression of cellular senescence marker p53 protein in the hippocampus (in vivo), Western Blotting; design: species or system senescence-accelerated mice SAMP8; conditions: repeated oral administration for six weeks
# Text: as §1
# as §2, with “six” for “two”, “a protease inhibitor and a phosphatase inhibitor” for “combined protease/phosphatase inhibitors”, “Roche,” for “Thermo Fisher Scientific K.K.,”, “anti-p53” for “anti-SIRT1”, “Proteintech Group, Inc.)” for “Biolegend)”, “Medical and Biological Laboratories Co., Ltd.)” for “Fujifilm Wako Pure Chemical Corporation)”
# Klotho gene = assay: Enhancement of Klotho gene expression in the kidney (in vivo), real-time PCR; design: species or system senescence-accelerated mice SAMP8; conditions: repeated oral administration for two weeks
# Text: as §1
# as §4, with “K.K. cDNA was synthesized using PRIMEScript RT reagent Kit with gEraser manufactured by Takara. The synthesized cDNA was subjected to real-time PCR using KAPA SYBR Fast qPCR kit manufactured by Nippon Genetics Co., Ltd. Results are shown in FIG. 5.” for “K.K.”
# NAD+ = NAD+ amount increasing action (in vivo), NAD+/NADH Assay Kit; design: species or system senescence-accelerated mice SAMP8; conditions: single oral dose (180 minutes later) and mixed with food for one month; cerebral cortices
# Method: as §1
# A single dose of the sample prepared in (1) (a) was orally administered to animals for the evaluation tests in the above (2), and then cerebral cortices of such animals were excised 180 minutes later. In addition, the sample prepared in the above (1) (a) was mixed with food and fed to animals for the evaluation tests in the above (2) for one month, and then cerebral cortices of such animals were excised. The NAD^+ amount in the cerebral cortices was measured using NAD^+/NADH Assay Kit manufactured by Dojindo Laboratories.
# lipocalin-2 (NGAL) = assay: Inhibitory action on kidney injuries (in vivo), NGAL Western Blotting; design: species or system senescence-accelerated mice SAMP8; conditions: repeated oral administration for two weeks
# Text: as §1, §3
# SIRT1 = target: T1, SIRT1 (Mus musculus, UniProt Q923E4); assay: SIRT1 activation action (in vivo), SIRT1_GLO kit on cerebral cortex lysate; design: species or system senescence-accelerated mice SAMP8; conditions: single oral dose, 180 minutes after administration, vs control group
# T1 construct: from tissue; host or cells: cerebral cortex of SAMP8 mice
# T1 sequence (Q923E4 1-737): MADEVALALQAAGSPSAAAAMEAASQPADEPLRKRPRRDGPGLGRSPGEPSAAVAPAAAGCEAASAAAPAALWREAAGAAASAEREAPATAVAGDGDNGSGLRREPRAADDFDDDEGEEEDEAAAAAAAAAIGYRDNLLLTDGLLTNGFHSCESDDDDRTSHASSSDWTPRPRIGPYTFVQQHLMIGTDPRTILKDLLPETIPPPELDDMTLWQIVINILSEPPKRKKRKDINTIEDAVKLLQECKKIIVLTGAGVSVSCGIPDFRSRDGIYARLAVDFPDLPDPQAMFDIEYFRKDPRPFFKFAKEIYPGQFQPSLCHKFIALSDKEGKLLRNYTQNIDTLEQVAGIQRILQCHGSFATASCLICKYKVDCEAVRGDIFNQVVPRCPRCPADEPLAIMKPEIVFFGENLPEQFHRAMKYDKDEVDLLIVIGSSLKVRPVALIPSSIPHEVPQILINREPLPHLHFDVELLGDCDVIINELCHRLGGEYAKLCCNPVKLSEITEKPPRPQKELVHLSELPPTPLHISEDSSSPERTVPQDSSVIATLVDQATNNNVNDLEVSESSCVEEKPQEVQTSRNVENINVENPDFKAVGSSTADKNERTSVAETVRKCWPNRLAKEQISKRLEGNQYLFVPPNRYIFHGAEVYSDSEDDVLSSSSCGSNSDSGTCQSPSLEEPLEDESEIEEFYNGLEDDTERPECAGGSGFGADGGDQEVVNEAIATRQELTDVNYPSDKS
# Method: as §1
# A SIRT1_GLO kit manufactured by Promega Corporation was purchased to measure the sirtuins activity. A lysate of the cerebral cortex was placed in a 96-well plate, various reaction reagents were added, and then luminous intensity of luciferase was measured by a plate reader.
# A single dose of the sample prepared in the above (1) (a) was orally administrated to animals for the evaluation tests in the above (2), and then cerebral cortices of such animals were extracted 15, 30, 60, and 180 minutes later. The cerebral cortices were crushed using an automatic tissue crusher and lysed by adding a cell dissolution liquid. Centrifugation was performed and the sirtuins activity in the supernatant thereof was measured.
# [2] = test system: senescence-accelerated mice SAMP8; assay: Cognitive/memory retention action (in vivo), passive avoidance test; conditions: mixed with food for four months, holding trial after two months
# Method: as §1
# The sample prepared in the above (1) (a) was mixed with food and fed to animals for evaluation test in the above (2) for four months, and then a passive avoidance test was performed. The passive avoidance test is a test utilizing a habit that a mouse prefers a dark place, and on Day 1, a mouse already in a bright room was moved to a dark room while receiving an electrical shock (50 V/1 second), and the time it took for the mouse to enter the dark room was taken as response latency of an acquisition trial. After two months, the mouse was put in the bright room again and the time it took to move to the dark room (the response latency of a holding trial) was used as an index of memory.
# p21 gene = assay: Suppression of senescent cell marker p21 gene expression in the kidney (in vivo), real-time PCR; design: species or system senescence-accelerated mice SAMP8; conditions: repeated oral administration for two weeks
# Text: as §1, §4, §5
compound,measurement,setting,value
CC=CSCC(N)C(=O)O (centres unmarked) [S-1-propenylcysteine],SIRT1 protein mass in the hippocampus,SIRT1 protein,increased
same,KIM-1 protein mass in the kidney,[1],reduced
same,cells expressing p16 gene in the kidneys,p16 gene,reduced
same,expression of SIRT1 gene in the kidney,SIRT1 gene,increased
same,p53 protein mass in the hippocampus,p53 protein,reduced
same,expression of Klotho gene in the kidney,Klotho gene,increased
same,NAD+ amount,NAD+,increased
same,NGAL protein mass in the kidney,lipocalin-2 (NGAL),reduced
same,Sirtuin activity in cerebral cortex,SIRT1,increased
same,aging-related decline in cognitive and memory functions (response latency of holding trial),[2],ameliorated
same,cells expressing p21 gene in the kidneys,p21 gene,reduced
